These results are taken from patent US20250059188A1, “ARYLSULPHONAMIDE COMPOUNDS” (Anaxis Pharma Pty Ltd, priority 2021, published 2025).

In one assay the target is human MLKL (full length) (Homo sapiens (Human), UniProt Q8NB16). Briefly: KINOMEscan binding assay, human MLKL (full length). The conditions noted are these: equilibrium dissociation constant. The essentials: (§1)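 Kd values come from dose-response fits to the Hill equation (Hill slope −1, Levenberg–Marquardt least squares). Compound competed with bead-bound ligand for tagged kinase, and remaining kinase was measured by qPCR after elution. Dilution series: 11 points, 3-fold, 1% DMSO final, top 30,000 nM in most runs.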

Another assay addresses mouse MLKL (full length) (Mus musculus (Mouse), UniProt Q9D2Y4). Put plainly: KINOMEscan binding assay, mouse MLKL (full length). The note with it: equilibrium dissociation constant. The procedure:
Binding affinity of the test compounds for human MLKL (full length), mouse MLKL (full length), human RIPK1 and human RIPK3 was determined using the KINOMEscan™ technology developed by DiscoverX (USA; http://www.discoverx.com). The assay was conducted according to manufacturer instructions.
Kinase assays. For most assays, kinase-tagged T7 phage strains were grown in parallel in 24-well blocks in an E. coli host derived from the BL21 strain. E. coli were grown to log-phase and infected with T7 phage from a frozen stock (multiplicity of infection=0.4) and incubated with shaking at 32° C. until lysis (90-150 minutes). The lysates were centrifuged (6,000×g) and filtered (0.2 μm) to remove cell debris. The remaining kinases were produced in HEK-293 cells and subsequently tagged with DNA for qPCR detection. […] The liganded beads were blocked with excess biotin and washed with blocking buffer (SeaBlock (Pierce), 1% BSA, 0.05% Tween 20, 1 mM DTT) to remove unbound ligand and to reduce non-specific phage binding. […] All reactions were performed in polypropylene 384-well plates in a final volume of 20 μL. […] The kinase concentration in the eluates was measured by qPCR.
An 11-point 3-fold serial dilution of each test compound was prepared in 100% DMSO at 100× final test concentration and subsequently diluted to 1× in the assay (final DMSO concentration=1%). Most Kos were determined using a compound top concentration=30,000 nM.
KD for each test compound was calculated with a standard dose-response curve using the Hill equation (equation (1)): […]
The Hill Slope was set to −1.
Curves were fitted using a non-linear least square fit with the Levenberg-Marquardt algorithm.

The next assay concerns the target human RIPK3 (Homo sapiens (Human), UniProt Q9Y572). Briefly: KINOMEscan binding assay, human RIPK3. The conditions noted are these: equilibrium dissociation constant. The essentials: as §1
For another assay, the target named is human RIPK1 (Homo sapiens (Human), UniProt Q13546). Put plainly: KINOMEscan binding assay, human RIPK1. The note with it: equilibrium dissociation constant. The essentials: as §1
The test system of assay [1] is U937 human histiocytic leukemia cell line. Briefly: Inhibition of TSQ induced necroptosis in U937 cells (CellTitre-Glo). The note with it: Homo sapiens, U-937, TSQ cocktail (TNF, Smac mimetic, Q-VD-OPh), 48 hours, read-out: Inhibition of TSQ-induced necroptosis (IC50 cell-based assay). The essentials:
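U937 cells (20000/well) treated with compound (10-point, 1:3 from 36 μM, 0.3% DMSO) plus TSQ cocktail (hTNF-Fc 100 ng/ml, Smac mimetic 500 nM, Q-VD-OPh 10 μM), 48 h at 37 °C. Viability by CellTiter-Glo luminescence; IC50 from 4-parameter logistic fit. Counter screen: same cells without TSQ.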

The test system of another assay is U937 cells. Put plainly: Counter screen: U937 cell viability without TSQ cocktail (off-target effect). Also noted: species or system human. The conditions noted are these: Homo sapiens, U-937, compound without TSQ cocktail, read-out: Off-target effect (IC50 cell-based assay). The essentials: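 U937 cells (20,000/well) exposed to compound (10-point 1:3 titration from 36 μM, 0.3% DMSO) without TSQ cocktail for 48 h at 37 °C/5% CO2. Viability read as ATP by CellTiter-Glo luminescence; IC50 from 4-parameter logistic fit.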

Bounds are passed on as bounds.

mouse MLKL (full length), sequence (Q9D2Y4 whole entry): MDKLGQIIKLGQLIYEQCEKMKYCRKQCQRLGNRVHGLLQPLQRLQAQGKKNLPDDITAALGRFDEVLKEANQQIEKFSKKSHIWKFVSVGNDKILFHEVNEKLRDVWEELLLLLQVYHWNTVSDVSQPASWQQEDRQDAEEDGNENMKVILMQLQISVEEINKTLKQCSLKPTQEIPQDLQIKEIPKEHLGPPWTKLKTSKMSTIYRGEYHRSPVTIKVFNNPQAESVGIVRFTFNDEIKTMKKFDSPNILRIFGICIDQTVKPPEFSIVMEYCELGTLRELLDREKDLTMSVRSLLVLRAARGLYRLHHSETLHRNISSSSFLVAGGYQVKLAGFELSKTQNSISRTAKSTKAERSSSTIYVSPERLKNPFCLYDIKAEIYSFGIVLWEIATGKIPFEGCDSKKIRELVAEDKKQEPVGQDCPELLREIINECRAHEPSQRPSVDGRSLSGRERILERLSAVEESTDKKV
human RIPK3, sequence (Q9Y572 whole entry): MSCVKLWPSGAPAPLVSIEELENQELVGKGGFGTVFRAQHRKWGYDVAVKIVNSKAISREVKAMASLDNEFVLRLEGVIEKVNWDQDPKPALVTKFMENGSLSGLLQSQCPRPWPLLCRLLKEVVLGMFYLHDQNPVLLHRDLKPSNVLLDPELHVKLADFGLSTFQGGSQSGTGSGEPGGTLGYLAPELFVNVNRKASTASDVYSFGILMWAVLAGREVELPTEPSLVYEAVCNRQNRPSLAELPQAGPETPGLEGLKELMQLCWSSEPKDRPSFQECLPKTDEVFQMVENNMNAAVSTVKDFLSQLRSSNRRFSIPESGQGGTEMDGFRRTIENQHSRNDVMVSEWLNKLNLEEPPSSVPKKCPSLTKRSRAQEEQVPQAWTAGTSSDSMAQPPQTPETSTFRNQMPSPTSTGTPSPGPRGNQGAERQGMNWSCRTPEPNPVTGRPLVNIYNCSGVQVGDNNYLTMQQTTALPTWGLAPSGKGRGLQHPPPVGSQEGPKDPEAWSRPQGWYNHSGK
human RIPK1, sequence (Q13546 whole entry): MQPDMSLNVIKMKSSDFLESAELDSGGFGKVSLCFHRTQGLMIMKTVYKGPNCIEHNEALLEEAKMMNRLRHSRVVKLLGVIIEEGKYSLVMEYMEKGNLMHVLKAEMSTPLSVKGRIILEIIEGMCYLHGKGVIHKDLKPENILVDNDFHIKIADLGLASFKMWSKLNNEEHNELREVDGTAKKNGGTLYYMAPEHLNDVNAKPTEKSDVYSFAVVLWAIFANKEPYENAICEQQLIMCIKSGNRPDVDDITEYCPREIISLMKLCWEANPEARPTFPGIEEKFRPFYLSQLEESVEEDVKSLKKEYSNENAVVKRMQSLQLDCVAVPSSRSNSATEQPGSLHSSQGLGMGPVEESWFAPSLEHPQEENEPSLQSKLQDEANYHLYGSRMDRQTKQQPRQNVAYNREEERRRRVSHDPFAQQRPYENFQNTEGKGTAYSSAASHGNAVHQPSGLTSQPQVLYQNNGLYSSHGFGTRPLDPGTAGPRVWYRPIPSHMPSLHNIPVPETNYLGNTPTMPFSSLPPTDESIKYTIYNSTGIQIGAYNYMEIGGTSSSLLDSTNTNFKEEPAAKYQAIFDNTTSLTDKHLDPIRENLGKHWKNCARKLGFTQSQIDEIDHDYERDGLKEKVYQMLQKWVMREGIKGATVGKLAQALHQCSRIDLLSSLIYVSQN
human MLKL (full length), sequence (Q8NB16 whole entry): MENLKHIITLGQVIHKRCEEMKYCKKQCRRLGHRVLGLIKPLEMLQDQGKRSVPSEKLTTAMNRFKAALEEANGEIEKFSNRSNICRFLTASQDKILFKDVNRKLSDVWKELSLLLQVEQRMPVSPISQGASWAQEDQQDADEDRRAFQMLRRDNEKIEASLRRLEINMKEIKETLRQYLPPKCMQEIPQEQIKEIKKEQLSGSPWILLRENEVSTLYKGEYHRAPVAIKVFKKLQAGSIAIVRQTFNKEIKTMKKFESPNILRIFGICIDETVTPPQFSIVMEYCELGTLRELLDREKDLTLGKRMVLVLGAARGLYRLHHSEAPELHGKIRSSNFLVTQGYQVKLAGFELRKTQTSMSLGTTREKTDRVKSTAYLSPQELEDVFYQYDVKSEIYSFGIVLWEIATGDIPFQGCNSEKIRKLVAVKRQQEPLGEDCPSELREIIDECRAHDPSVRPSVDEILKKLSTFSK

`Nc1ncc(-c2cnn(C3CCOCC3)c2)c2occ(-c3ccc(NS(=O)(=O)C(F)F)c(OCc4ccc(F)cc4)c3)c12` [Compound 5, N-(4-(4-amino-7-(1-(tetrahydro-2H-pyran-4-yl)-1H-pyrazol-4-yl)furo[3,2-c]pyridin-3-yl)-2-((4-fluorobenzyl)oxy)phenyl)-1,1-difluoromethanesulfonamide]: the Kd was under 0.001 µM on human MLKL (full length), under 0.001 µM at mouse MLKL (full length), over 10 µM at human RIPK3 and over 10 µM at human RIPK1.

Regarding `C[C@H](Oc1cc(-c2coc3c(-c4cnn(C5CCOCC5)c4)cnc(N)c23)ccc1NS(=O)(=O)C(F)F)c1ccc(F)cc1` [Compound 7, (S)-N-(4-(4-amino-7-(1-(tetrahydro-2H-pyran-4-yl)-1H-pyrazol-4-yl)furo[3,2-c]pyridin-3-yl)-2-(1-(4-fluorophenyl)ethoxy)phenyl)-1,1-difluoromethanesulfonamide], the Kd is 0.001 to 0.1 µM at human MLKL (full length), under 0.001 µM at mouse MLKL (full length), over 10 µM at human RIPK3 and over 10 µM on human RIPK1. The IC50 in assay [1] lay in the range of 0.01 to 1 µM; with U937 cells it was 1 to 10 µM.

For the molecule `C[C@H](Oc1cc(-c2coc3c(-c4cnn(C)c4)cnc(N)c23)ccc1NS(=O)(=O)C(F)F)c1ccc(F)cc1` [Compound 8, (S)-N-(4-(4-amino-7-(1-methyl-1H-pyrazol-4-yl)furo[3,2-c]pyridin-3-yl)-2-(1-(4-fluorophenyl)ethoxy)phenyl)-1,1-difluoromethanesulfonamide], the Kd on human MLKL (full length) was under 0.001 µM; on mouse MLKL (full length) it was under 0.001 µM; on human RIPK3 it was over 10 µM; on human RIPK1, over 10 µM.

Regarding `C[C@H](Oc1cc(-c2coc3c(-c4cnn(CCO)c4)cnc(N)c23)ccc1NS(=O)(=O)C(F)F)c1ccc(F)cc1` [Compound 9, (S)-N-(4-(4-amino-7-(1-(2-hydroxyethyl)-1H-pyrazol-4-yl)furo[3,2-c]pyridin-3-yl)-2-(1-(4-fluorophenyl)ethoxy)phenyl)-1,1-difluoromethanesulfonamide], the dissociation constant Kd is under 0.001 µM at human MLKL (full length), 0.001 to 0.1 µM at mouse MLKL (full length), over 10 µM at human RIPK3 and over 10 µM on human RIPK1. For the same molecule, the concentration for half-maximal inhibition (IC50) in assay [1] lay in the range of 0.01 to 1 µM; with U937 cells, 1 to 10 µM.

For `C[C@H](Oc1cc(-c2nn(C)c3c(-c4cnn(CCO)c4)cnc(N)c23)ccc1NS(=O)(=O)C(F)F)c1ccc(F)cc1` [Compound 15, (S)-N-(4-(4-amino-7-(1-(2-hydroxyethyl)-1H-pyrazol-4-yl)-1-methyl-1H-pyrazolo[4,3-c]pyridin-3-yl)-2-(1-(4-fluorophenyl)ethoxy)phenyl)-1,1-difluoromethanesulfonamide], the Kd is under 0.001 µM on human MLKL (full length), under 0.001 µM at mouse MLKL (full length), over 10 µM on human RIPK3 and over 10 µM at human RIPK1. The results for the concentration for half-maximal inhibition (IC50) (in assay [1]; with U937 cells) were 0.01 to 1 µM and over 10 µM, respectively.

With `C[C@H](Oc1cc(-c2nn(C)c3c(-c4ccncc4)cnc(N)c23)ccc1NS(=O)(=O)C(F)F)c1ccc(F)cc1` [Compound 18, (S)-N-(4-(4-amino-1-methyl-7-(pyridin-4-yl)-1H-pyrazolo[4,3-c]pyridin-3-yl)-2-(1-(4-fluorophenyl)ethoxy)phenyl)-1,1-difluoromethanesulfonamide], the Kd is under 0.001 µM at human MLKL (full length), 0.001 to 0.1 µM at mouse MLKL (full length), over 10 µM on human RIPK3 and over 10 µM on human RIPK1. The IC50 in assay [1] is 0.01 to 1 µM; with U937 cells, over 10 µM.

Take `C[C@H](Oc1cc(-c2nn(C)c3c(-c4cnn(C)c4)cnc(N)c23)ccc1NS(=O)(=O)C(F)F)c1ccc(F)cc1` [Compound 20, (S)-N-(4-(4-amino-1-methyl-7-(1-methyl-1H-pyrazol-4-yl)-1H-pyrazolo[4,3-c]pyridin-3-yl)-2-(1-(4-fluorophenyl)ethoxy)phenyl)-1,1-difluoromethanesulfonamide]: the dissociation constant Kd at human MLKL (full length) was under 0.001 µM; on mouse MLKL (full length) it was under 0.001 µM; at human RIPK3 it was over 10 µM; on human RIPK1 it was over 10 µM. The IC50 in assay [1] is 0.01 to 1 µM; with U937 cells it was over 10 µM.

Take `C[C@H](Oc1cc(-c2nn(C)c3c(-c4cnn(CCN5CCN(C)CC5)c4)cnc(N)c23)ccc1NS(=O)(=O)C(F)F)c1ccc(F)cc1` [Compound 60, (S)-N-(4-(4-amino-1-methyl-7-(1-(2-(4-methylpiperazin-1-yl)ethyl)-1H-pyrazol-4-yl)-1H-pyrazolo[4,3-c]pyridin-3-yl)-2-(1-(4-fluorophenyl)ethoxy)phenyl)-1,1-difluoromethanesulfonamide]: the Kd was 0.001 to 0.1 µM on human MLKL (full length), under 0.001 µM at mouse MLKL (full length), over 10 µM at human RIPK3 and over 10 µM on human RIPK1. Further, the figures for the half-maximal inhibitory concentration (IC50) (in assay [1]; in the assay on U937 cells) were 0.01 to 1 µM and over 10 µM, respectively.

Turning to `C[C@H](Oc1cc(-c2nn(C)c3c(-c4cnn(C5CCN(CC(F)(F)F)CC5)c4)cnc(N)c23)ccc1NS(=O)(=O)C(F)F)c1ccc(F)cc1` [Compound 61, (S)-N-(4-(4-amino-1-methyl-7-(1-(1-(2,2,2-trifluoroethyl)piperidin-4-yl)-1H-pyrazol-4-yl)-1H-pyrazolo[4,3-c]pyridin-3-yl)-2-(1-(4-fluorophenyl)ethoxy)phenyl)-1,1-difluoromethanesulfonamide], the dissociation constant Kd was 0.001 to 0.1 µM on human MLKL (full length), 0.001 to 0.1 µM at mouse MLKL (full length), over 10 µM at human RIPK3 and over 10 µM at human RIPK1. In addition, the results for the 50% inhibitory concentration (IC50) (in assay [1]; in the assay on U937 cells) were 0.01 to 1 µM and over 10 µM, respectively.

With `Nc1n[nH]c2nccc(-c3ccc(NS(=O)(=O)C(F)F)c(OCc4ccc(F)cc4)c3)c12` [Compound 66, N-(4-(3-Amino-1H-pyrazolo[3,4-b]pyridin-4-yl)-2-((4-fluorophenyl)methoxy)phenyl)-1,1-difluoromethanesulfonamide], the Kd at human MLKL (full length) is under 0.001 µM; on mouse MLKL (full length), 0.001 to 0.1 µM; on human RIPK3, over 10 µM; on human RIPK1 it was over 10 µM.

Consider `Nc1n[nH]c2ncnc(-c3ccc(NS(=O)(=O)C(F)F)c(OCc4ccc(F)cc4)c3)c12` [Compound 69, N-(4-(3-Amino-1H-pyrazolo[3,4-d]pyrimidin-4-yl)-2-((4-fluorophenyl)methoxy)phenyl)-1,1-difluoromethanesulfonamide], for which the Kd was under 0.001 µM at human MLKL (full length), 0.001 to 0.1 µM at mouse MLKL (full length), over 10 µM at human RIPK3 and over 10 µM on human RIPK1.

Take `Cc1cc(-c2ccc(NS(=O)(=O)C(F)F)c(OCc3ccc(F)cc3)c2)c2c(N)n[nH]c2n1` [Compound 70, N-(4-(3-Amino-6-methyl-1H-pyrazolo[3,4-b]pyridin-4-yl)-2-((4-fluorophenyl)methoxy)phenyl)-1,1-difluoromethanesulfonamide]: the Kd was under 0.001 µM at human MLKL (full length), 0.001 to 0.1 µM on mouse MLKL (full length), over 10 µM at human RIPK3 and over 10 µM on human RIPK1.

For the molecule `C[C@H](Oc1cc(-c2ccnc3[nH]nc(N)c23)ccc1NS(=O)(=O)C(F)F)c1ccc(F)cc1` [Compound 72, N-(4-(3-Amino-1H-pyrazolo[3,4-b]pyridin-4-yl)-2-((1S)-1-(4-fluorophenyl)ethoxy)phenyl)-1,1-difluoromethanesulfonamide], the Kd is under 0.001 µM on human MLKL (full length), 0.001 to 0.1 µM on mouse MLKL (full length), over 10 µM on human RIPK3 and over 10 µM at human RIPK1. Also, the IC50 in assay [1] is 0.01 to 1 µM; in the assay with U937 cells, over 10 µM.
